Source: patent US8063071B2 (GlaxoSmithKline, LLC, priority 2007, dated 2011)
Structures can show the parent of a compound that is named as a salt.

Assays:
[1] = test system: human monocyte stimulated cytokine production (TNF-α); experiment: Monocyte assay (LPS-stimulated TNF-α production); type: cell-based; settings: for IC50: 24 h, 200 ng/mL LPS, TNF-α by ELISA; for inhibition at 0.3 µM: read-out: inhibition at 300 nM in the monocyte assay
Description: Effect of IKK-β inhibition on human monocyte stimulated cytokine production was assessed as follows: Monocytes were isolated from heparinized whole blood by Ficoll gradient, followed by purification of CD14+ cells using MACS magnetic cell separation beads. Isolated monocytes were then adhered to 96-well culture plates at 1×10^6 cells/mL in RPMI 1640 10% FBS (JRH Biosciences, Lenexa Kans.) for 2 h. Test compounds are added to the wells 30 minutes prior to stimulation with a final vehicle concentration of 0.1% DMSO. Monocytes were activated by the addition of 200 ng/mL endotoxin (LPS; E. coli serotype 026:B6)(Sigma, St. Louis, Mo.) and incubated for 24 hrs at 37 C. Cell-free supernates were analyzed by ELISA for TNF-α using Pharmingen matched pair Abs. Viability of the cells was determined by 10% trypan blue exclusion.

[2] = molecular target: T1, Recombinant human IKKβ (residues 1-737) (Homo sapiens, UniProt O14920); experiment: IKK2 assay (TR-FRET); type: biochemical; settings: ATP 1 μM final, read-out: pIC50 against IKK2 (converted)
T1 construct: Recombinant human IKKβ (residues 1-737); GST (C); made in house
T1 sequence (O14920 1-737): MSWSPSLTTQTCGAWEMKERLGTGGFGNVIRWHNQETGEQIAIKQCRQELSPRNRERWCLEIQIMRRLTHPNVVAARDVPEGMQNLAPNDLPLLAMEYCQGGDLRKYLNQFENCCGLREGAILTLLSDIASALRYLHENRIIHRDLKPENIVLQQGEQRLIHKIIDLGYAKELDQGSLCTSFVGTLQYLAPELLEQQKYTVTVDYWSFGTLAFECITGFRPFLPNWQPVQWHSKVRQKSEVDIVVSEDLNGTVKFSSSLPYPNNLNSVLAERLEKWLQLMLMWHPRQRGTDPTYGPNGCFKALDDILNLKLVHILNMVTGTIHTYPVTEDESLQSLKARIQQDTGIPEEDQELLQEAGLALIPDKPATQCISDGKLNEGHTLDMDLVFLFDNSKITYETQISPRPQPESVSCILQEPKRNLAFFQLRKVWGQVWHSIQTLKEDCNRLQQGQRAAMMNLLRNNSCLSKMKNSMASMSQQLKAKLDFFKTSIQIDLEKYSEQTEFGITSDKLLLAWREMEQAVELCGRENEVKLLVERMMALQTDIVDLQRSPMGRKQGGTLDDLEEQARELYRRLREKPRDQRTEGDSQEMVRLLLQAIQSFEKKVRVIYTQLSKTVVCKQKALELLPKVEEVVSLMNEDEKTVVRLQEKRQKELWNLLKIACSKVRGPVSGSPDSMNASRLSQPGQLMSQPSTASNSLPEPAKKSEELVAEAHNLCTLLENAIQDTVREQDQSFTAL
Description: Recombinant human IKKβ (residues 1-737) was expressed in baculovirus as a C-terminal GST-tagged fusion protein, and its activity was assessed using a time-resolved fluorescence resonance energy transfer (TR-FRET) assay. Briefly, IKK2 (0.5 nM-5 nM final) diluted in assay buffer (50 mM HEPES, 10 mM MgCl2, 1 mM CHAPS pH 7.4 with 1 mM DTT and 0.01% w/v BSA) was added to wells containing various concentrations of compound or DMSO vehicle (1.7% final). The reaction was initiated by the addition of GST-IB substrate (25 nM final)/ATP (1 μM final), in a total volume of 6 μl. The reaction was incubated for 15 minutes at room temperature, then terminated by the addition of 3 μl of detection reagent in buffer containing 50 mM EDTA (100 mM HEPES pH 7.4, 150 mM NaCl, 50 mM EDTA and 0.01% w/v BSA) containing antiphosphoserine-IB-32/36 monoclonal antibody 12C2 (Cell Signalling Technology, Beverly Mass., USA) labelled with W-1024 europium chelate (Wallac OY, Turku, Finland), and an APC-labelled anti-GST antibody (Prozyme, San Leandro, Calif., USA) was added and the reaction was further incubated for 60 minutes at room temperature. The degree of phosphorylation of GST-IB was measured using a BMG Rubystar plate reader (BMG Labtech, Aylesbury, UK) as a ratio of specific 665 nm energy transfer signal to reference europium 620 nm signal.

| SMILES | IC50 [2] | other results |
| --- | --- | --- |
| CCS(=O)(=O)N1CCC(c2c[nH]c3c(C(N)=O)cc(-c4ccc5c(c4)C(NCC(C)C)CCC5)cc23)CC1 (stereo not drawn) [Example 34, 3-[1-(ethylsulfonyl)-4-piperidinyl]-5-{8-[(2-methylpropyl)amino]-5,6,7,8-tetrahydro-2-naphthalenyl}-1H-indole-7-carboxamide trifluoroacetate] |  | IC50 [1]: > 1000 nM |
| CCS(=O)(=O)N1CCC(c2c[nH]c3c(C(N)=O)cc(-c4cc(CNC(C)C)c5c(c4)OCC5)cc23)CC1 [Example 59, 3-[1-(ethylsulfonyl)-4-piperidinyl]-5-(4-{[(1-methylethyl)amino]methyl}-2,3-dihydro-1-benzofuran-6-yl)-1H-indole-7-carboxamide] |  | inhibition at 0.3 µM [1]: 0 to 60% |
| CCS(=O)(=O)N1CCC(c2c[nH]c3c(C(N)=O)cc(-c4csc(CN5CCCC5CC(C)C)c4)cc23)CC1 (stereo not drawn) [Example 97, 3-[1-(ethylsulfonyl)-4-piperidinyl]-5-(5-{[2-(2-methylpropyl)-1-pyrrolidinyl]methyl}-3-thienyl)-1H-indole-7-carboxamide] |  | inhibition at 0.3 µM [1]: 0 to 60% |
| CCS(=O)(=O)N1CCC(c2c[nH]c3c(C(N)=O)cc(-c4csc(CNCC(C)(C)C)c4)cc23)CC1 [Example 117, 5-(5-{[(2,2-dimethylpropyl)amino]methyl}-3-thienyl)-3-[1-(ethylsulfonyl)-4-piperidinyl]-1H-indole-7-carboxamide trifluoroacetate] |  | IC50 [1]: ≤ 1500 nM |
| CCS(=O)(=O)N1CCC(c2c[nH]c3c(C(N)=O)cc(-c4cccc(-n5cccn5)c4)cc23)CC1 [Example 164, 3-[1-(ethylsulfonyl)-4-piperidinyl]-5-[3-(1H-pyrazol-1-yl)phenyl]-1H-indole-7-carboxamide] |  | IC50 [1]: ≤ 1500 nM |
| CCS(=O)(=O)N1CCC(c2c[nH]c3c(C(N)=O)cc(-c4cncc(CNCC5CC5)c4)cc23)CC1 [Example 173, 5-(5-{[(cyclopropylmethyl)amino]methyl}-3-pyridinyl)-3-[1-(ethylsulfonyl)-4-piperidinyl]-1H-indole-7-carboxamide] |  | inhibition at 0.3 µM [1]: 0 to 60% |
| CCCOCCCNCc1ccc(-c2cc(C(N)=O)c3[nH]cc(C4CCN(S(=O)(=O)CC)CC4)c3c2)s1 [Example 198, 3-[1-(ethylsulfonyl)-4-piperidinyl]-5-[5-({[3-(propyloxy)propyl]amino}methyl)-2-thienyl]-1H-indole-7-carboxamide] |  | inhibition at 0.3 µM [1]: 0 to 60% |
| CCS(=O)(=O)N1CCC(c2c[nH]c3c(C(N)=O)cc(-c4csc(CN5CCCC5COC)c4)cc23)CC1 (stereo not drawn) [Example 405, 3-[1-(ethylsulfonyl)-4-piperidinyl]-5-[5-({2-[(methyloxy)methyl]-1-pyrrolidinyl}methyl)-3-thienyl]-1H-indole-7-carboxamide trifluoroacetate] | ≤ 10 µM |  |
| CCS(=O)(=O)N1CCC(c2c[nH]c3c(C(N)=O)cc(-c4csc(CN5CCCC(C(F)(F)F)C5)c4)cc23)CC1 (stereo not drawn) [Example 407, 3-[1-(ethylsulfonyl)-4-piperidinyl]-5-(5-{[3-(trifluoromethyl)-1-piperidinyl]methyl}-3-thienyl)-1H-indole-7-carboxamide trifluoroacetate] | ≤ 10 µM |  |
| CCS(=O)(=O)N1CCC(c2c[nH]c3c(C(N)=O)cc(-c4csc(CN(C)CCNC(C)=O)c4)cc23)CC1 [Example 410, 5-(5-{[[2-(acetylamino)ethyl](methyl)amino]methyl}-3-thienyl)-3-[1-(ethylsulfonyl)-4-piperidinyl]-1H-indole-7-carboxamide trifluoroacetate] | ≤ 10 µM |  |
| CCS(=O)(=O)N1CCC(c2c[nH]c3c(C(N)=O)cc(-c4csc(CN(C)[C@@H]5CCC[C@H]5O)c4)cc23)CC1 [Example 411, 3-[1-(ethylsulfonyl)-4-piperidinyl]-5-(5-{[[(1R,2R)-2-hydroxycyclopentyl](methyl)amino]methyl}-3-thienyl)-1H-indole-7-carboxamide trifluoroacetate] | ≤ 10 µM |  |
| CCS(=O)(=O)N1CCC(c2c[nH]c3c(C(N)=O)cc(-c4csc(CN(C)C[C@H](C)O)c4)cc23)CC1 [Example 413, 3-[1-(ethylsulfonyl)-4-piperidinyl]-5-(5-{[[(2S)-2-hydroxypropyl](methyl)amino]methyl}-3-thienyl)-1H-indole-7-carboxamide trifluoroacetate] | ≤ 10 µM |  |
| CCS(=O)(=O)N1CCC(c2c[nH]c3c(C(N)=O)cc(-c4csc(CN(C)CCOCCO)c4)cc23)CC1 [Example 415, 3-[1-(ethylsulfonyl)-4-piperidinyl]-5-(5-{[{2-[(2-hydroxyethyl)oxy]ethyl}(methyl)amino]methyl}-3-thienyl)-1H-indole-7-carboxamide trifluoroacetate] | ≤ 10 µM |  |
| CCC(C)N1Cc2ccc(-c3cc(C(N)=O)c4[nH]cc(C5CCN(S(=O)(=O)CC)CC5)c4c3)cc2C1 (stereo not drawn) [Example 422, 3-[1-(ethylsulfonyl)-4-piperidinyl]-5-[2-(1-methylpropyl)-2,3-dihydro-1H-isoindol-5-yl]-1H-indole-7-carboxamide] | ≤ 10 µM |  |
| CCS(=O)(=O)N1CCC(c2c[nH]c3c(C(N)=O)cc(-c4ccc5c(c4)CN(CC(C)(C)C)C5)cc23)CC1 [Example 426, 5-[2-(2,2-dimethylpropyl)-2,3-dihydro-1H-isoindol-5-yl]-3-[1-(ethylsulfonyl)-4-piperidinyl]-1H-indole-7-carboxamide] | ≤ 10 µM |  |
| CCS(=O)(=O)N1CCC(c2c[nH]c3c(C(N)=O)cc(-c4ccc5c(c4)CN(C(=O)NS(=O)(=O)c4ccccc4)C5)cc23)CC1 [Example 428, 3-[1-(ethylsulfonyl)-4-piperidinyl]-5-(2-{[(phenylsulfonyl)amino]carbonyl}-2,3-dihydro-1H-isoindol-5-yl)-1H-indole-7-carboxamide] | ≤ 10 µM |  |

More lines, main results first:

| IC50 [2] | SMILES | other results |
| --- | --- | --- |
| ≤ 10 µM | CCS(=O)(=O)N1CCC(c2c[nH]c3c(C(N)=O)cc(-c4csc(CN(C)C[C@H]5CCCO5)c4)cc23)CC1 [Example 414, 3-[1-(ethylsulfonyl)-4-piperidinyl]-5-[5-({methyl[(2R)-tetrahydro-2-furanylmethyl]amino}methyl)-3-thienyl]-1H-indole-7-carboxamide trifluoroacetate] |  |
| ≤ 10 µM | CCS(=O)(=O)N1CCC(c2c[nH]c3c(C(N)=O)cc(-c4ccc5c(c4)CN(C(C)C(C)C)C5)cc23)CC1 (stereo not drawn) [Example 421, 5-[2-(1,2-dimethylpropyl)-2,3-dihydro-1H-isoindol-5-yl]-3-[1-(ethylsulfonyl)-4-piperidinyl]-1H-indole-7-carboxamide] |  |
| ≤ 10 µM | CCC(CC)N1Cc2ccc(-c3cc(C(N)=O)c4[nH]cc(C5CCN(S(=O)(=O)CC)CC5)c4c3)cc2C1 [Example 423, 5-[2-(1-ethylpropyl)-2,3-dihydro-1H-isoindol-5-yl]-3-[1-(ethylsulfonyl)-4-piperidinyl]-1H-indole-7-carboxamide] |  |
| ≤ 10 µM | CCS(=O)(=O)N1CCC(c2c[nH]c3c(C(N)=O)cc(-c4ccc5c(c4)CN(C4CCCC4)C5)cc23)CC1 [Example 424, 5-(2-cyclopentyl-2,3-dihydro-1H-isoindol-5-yl)-3-[1-(ethylsulfonyl)-4-piperidinyl]-1H-indole-7-carboxamide] |  |
| ≤ 10 µM | CCS(=O)(=O)N1CCC(c2c[nH]c3c(C(N)=O)cc(-c4ccc5c(c4)CN(CC4CC4)C5)cc23)CC1 [Example 425, 5-[2-(cyclopropylmethyl)-2,3-dihydro-1H-isoindol-5-yl]-3-[1-(ethylsulfonyl)-4-piperidinyl]-1H-indole-7-carboxamide] |  |
